Measurements as given in US20100183613A1, “METHODS OF USING MEVALONATE DECARBOXYLASE (MVD) ANTAGONISTS” (NOVARTIS AG, priority 2008, published 2010).
Entries after “also recorded” stand apart in the source; their conditions may differ. Where two headings read alike, the source gives them in different places.

Tests used:
[1] = Cell viability of infected K562 cells by Celltiter Glo; type: cell-based, human; settings: human, K562 cells infected with dengue NGC virus, K562 infection, same range of inhibitor concentrations, read-out: CC50 (concentration of 50% cell death)
Description: (§1) For compound testing, K562 infection system was used. […] The cell viability is measured by Celltiter Glo.
(§2) To determine the EC50 (effective concentration of 50% inhibition of virus growth) and the cytotoxity CC50 (concentration of 50% cell death), a dose response curve covering at least four different concentrations was done in K562 infection. The decrease of the percentage of the dengue positive cells was then plotted against the concentrations of inhibitors, using a nonlinear regression analysis to obtain the EC50. CC50 was calculated using the same method using the cell viability over the same range of inhibitor concentrations.

Dengue NGC virus [2] = assay: Dengue NGC live virus infection in K562 cells, FACS (anti-E/anti-NS1 double positive cells); type: cell-based; settings: for EC50: read-out: EC50 (effective concentration of 50% inhibition of virus growth); for inhibition of viral growth / effect on infection: K562 infection assay; for percent Dengue positive cells (E and NS1 double positive): K562, Dengue NGC, 48 hours, 4.8% positive without treatment
Description: as §1, §2

dengue strain MY10340 [3] = assay: Dengue infection of human PBMCs, FACS; type: cell-based, Dengue virus; settings: human PBMC, two days, enhancing antibodies, increasing concentration
Description: as §1
Statins are a safe and widely used drug for the treatment of hypercholesterolemia (12). The toxicity observed in K562 cells could be due to the specific effect of Statins in a cancer cell line (1,22). For avoiding the toxicity in cancer or transformed cell lines, health donors' PBMC were collected, and tested the effect of statin in PBMC infection was tested. PBMCs were infected with a clinically isolated dengue strain MY10340 for two days in the presence of enhancing antibodies from dengue positive plasma. The infection was assessed by FACS and plaque assay as for K562 infection.

dengue strain MY10340 [4] = assay: Live virus titer in PBMC infection by plaque assay; type: cell-based, Dengue virus; settings: human PBMC, two days, increasing concentration
Description: PBMC (Peripheral Blood Mononuclear Cell) were prepared from buffy coat from healthy donors using ficoll gradient. […] For virus titer analysis, the level of live virus was determined by plaque assay in BHK-21 cells (ATCC) in triplicate.
For compound testing, K562 infection system was used. 50,000 K562 cells were plated in 96 well in 100 ul and infected the second day with 1 m.o.i of NGC virus for two days. Compounds were added together with the virus and the viral growth was measured by FACS with two antibodies, the anti-Dengue Envelope protein antibody (ATCC) (26) conjugated to Alexa 680 (Invitrogen) and the anti NS1 antibody (ATCC) conjugated to Alexa 488. The cell viability is measured by Celltiter Glo. The supernatant after infection were collected for plaque assay for live virus titer. For PBMC infection, conditions were the same as for K562 infection except 500,000 total cells were plated and an 1:10,000 diluted dengue IgG positive serum was added to the infection.

K562 cells = assay: Cell viability of infected K562 cells by Celltiter Glo; type: cell-based, human; settings: for CC50: K562 infection, same range of inhibitor concentrations, read-out: CC50 (concentration of 50% cell death)
Description: as §1, §2

Dengue NGC virus [5] = assay: Plaque assay of supernatant after K562 infection; type: cell-based; settings: infected K562 cells, 48 hours, 0.1 μM and 10 μM
Description: The human lung-epithelial carcinoma A549 cell-line and hematopoetic cell line K562 are from ATCC and cultured according to instruction. PBMC (Peripheral Blood Mononuclear Cell) were prepared from buffy coat from healthy donors using ficoll gradient. The A549 dengue NGC replicon cells used for the work contains non-infectious, self replicating Dengue virus with a Renilla luciferase reporter under puromycin selection (24). Cells were cultured in F12 (Hams) medium (Invitrogen, Carlsbad, Calif.) supplemented with 10% fetal bovine serum (FBS) and puromycin (10-50 μg/ml). Cells were assayed in F12 medium supplement with 2% FBS without puromycin. Dengue NGC virus (GenBank number M29095) and the Malaysian clinical isolates MY10340 (from Shamala Devi, University of Malaya, Malaysia) were propagated in insect cells C6/36 (ATCC). For virus titer analysis, the level of live virus was determined by plaque assay in BHK-21 cells (ATCC) in triplicate.
as §1

[6] = K562 cells, 1 m.o.i NGC virus, two days, decrease of percentage of dengue positive cells by FACS

Molecule | CC50 at 2 days [1] [µM] | CC50 (K562 cells) [µM] | EC50 (Dengue NGC virus [2]; [6]) [µM] | inhibition of viral growth / effect on infection (Dengue NGC virus [2]) | other results
CC[C@H](C)C(=O)O[C@H]1C[C@@H](C)C=C2C=C[C@H](C)[C@H](CC[C@@H]3C[C@@H](O)CC(=O)O3)[C@H]21 [Lovastatin] | 46.8 |  |  |  | EC50 (Dengue NGC virus [2]; 48 h, K562 cells, 1 m.o.i NGC virus, two days, decrease of percentage of dengue positive cells by FACS): > 50 µM; percentage of infected cells (dengue strain MY10340 [3]): decreased; virus titer (dengue strain MY10340 [4]): decreased
Hymeglusin |  | ~50 | 4.5 | significantly inhibited | 
CC(C)n1c(/C=C/C(O)CC(O)CC(=O)O)c(-c2ccc(F)cc2)c2ccccc21 (stereo not drawn) [Fluvastatin] | 48.8 |  |  |  | EC50 (Dengue NGC virus [2]; Dengue virus, K562, 48 h): > 50 µM
C=C(CC[C@]12O[C@H](C(=O)O)[C@@](O)(C(=O)O)[C@](C(=O)O)(O1)[C@H](OC(=O)/C=C/[C@@H](C)C[C@@H](C)CC)[C@H]2O)[C@@H](OC(C)=O)[C@H](C)Cc1ccccc1 [Zaragozic Acid, Zaragozic acid A] |  | > 50 | 8.3 | significantly inhibited | effect on cell viability / cytotoxicity (K562 cells; K562 cells, dose range, 48 hours, listed as ZGA): no significant cytotoxicity; also recorded: no effect; percent Dengue positive cells (E and NS1 double positive) (Dengue NGC virus [2]; 0.1 μM ZGA): 2.8%; percent Dengue positive cells (E and NS1 double positive) (Dengue NGC virus [2]; 10 μM ZGA): 0.6%; fold less plaque than cells treated with DMSO alone (Dengue NGC virus [5]): 2-6 fold
CC(C)C[C@H](NC(=O)c1ccc(NCc2cnc[nH]2)cc1-c1cccc2ccccc12)C(=O)O [GGTI 2133] |  | > 50 | > 50 |  | 
